One test deals with T1, human P2X3 receptor (Homo sapiens, UniProt P56373).
T1 construct: expressed in transfected cells; host or cells: CHO-K1
T1 sequence (P56373 1-397): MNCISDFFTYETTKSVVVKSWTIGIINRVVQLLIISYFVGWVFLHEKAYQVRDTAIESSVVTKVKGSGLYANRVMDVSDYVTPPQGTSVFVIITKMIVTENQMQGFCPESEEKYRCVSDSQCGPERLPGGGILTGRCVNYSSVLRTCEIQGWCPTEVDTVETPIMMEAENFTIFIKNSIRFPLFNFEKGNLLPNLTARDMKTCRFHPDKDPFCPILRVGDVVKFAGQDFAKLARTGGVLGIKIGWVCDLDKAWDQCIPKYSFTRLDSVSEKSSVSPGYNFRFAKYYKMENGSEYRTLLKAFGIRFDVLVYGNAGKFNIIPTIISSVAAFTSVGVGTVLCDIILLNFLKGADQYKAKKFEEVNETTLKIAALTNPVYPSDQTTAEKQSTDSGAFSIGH
Put plainly: Calcium luminescence measurement: human P2X3 receptor activity inhibition (CHO-K1 cells, photoprotein readout, FLEXSTATION). In kind it is cell-based. The settings on record: CHO-K1 cells co-expressing human P2X3 and Ca2+ sensitive photoprotein; agonist α,β-Met-ATP; read-out: h-P2X3 IC50.

The subject of a further test is C57BL/6J mice. Put plainly: Scratching model: inhibition of ATP induced pruritus in mouse. The test is classed as in vivo. How it is done:
(§1) C57BL/6J mice, Hartley Guinea pigs and Sprague-Dawley Rats from Charles River Italy were used in the experiments. Animals were housed with free access to food and water and maintained on a forced 12 hr light-dark cycle at 22-24°C for at least one week before the experiments were carried out. The animals were handled according to internationally accepted principles for care of laboratory animals (Directive 2010/63/EU of the European Parliament and of the Council of 22 September 2010).
"Scratchng model" - Inhibition of ATP induced pruritus in mouse
Mice were shaved at the rostral back the day before injection. The day of the experiment, an intradermal injection of the irritant agent α,β-meATP 200 µg/50 µL (Sigma, Italy) into the skin was performed. The hind limb scratching behavior directed toward the injection site, was recorded. One bout was defined as the lifting of the hindlimb toward the injection site and then placing the limb back on the floor. The number of bouts were counted for a period of 30 minutes. The Example 22 compound investigated was injected intraperitoneally 30 min before the administration of the irritant agent. (Fig. 2)
In the scratching model the results are presented as mean ± SEM of the values. Statistical analysis was performed using one-way ANOVA and Dunnet's test for multiple comparisons. The ED35 of the tested compounds was determined by linear regression analysis of bouts (Graphpad v5).

The subject of the next test is Hartley Guinea pigs. Put plainly: Cough model: inhibition of citric acid induced cough in guinea pig. In kind it is in vivo. To be noted: intraperitoneally 30 min before nebulization of citric acid 0.4 M, compared with vehicle (Fig. 3). How it is done: as §1
"Cough model" - Inhibition of citric acid induced cough in guinea pig
Conscious guinea pigs were placed in the transparent chamber of the whole-body plethysmograph (EMKA) and allowed to move freely. The number of coughs was registered by the IOX2 software for 10 minutes during and 10 minutes after the nebulization of citric acid 0.4 M. Example 22 was injected intraperitoneally 30 min before the nebulization of citric acid. (see Fig. 3) In cough model the results are presented as mean ± SEM of the values. Statistical analysis was performed using one-way ANOVA and Dunnet's test for multiple comparisons.

pIC50: −log10 of the molar value.

The pIC50 is the IC50 on a negative log10 scale, so that one unit is a factor of ten.

As for `CC(C)C1C(=O)N=C2c3ncc(N4CCOCC4)cc3N(Cc3ccc(Cl)cc3)C(=O)N21` (racemic) [Example 22, 6-[(4-Chlorophenyl)methyl]-8-(morpholin-4-yl)-3-(propan-2-yl)imidazo[1,2-c]pyrido[2,3-e]pyrimidine-2,5(3H,6H)-dione], the pIC50 on human P2X3 receptor is 7.43. The “ED35” value in the test with C57BL/6J mice (dose inhibiting the 35% of number of bouts, intraperitoneally 30 min before α,β-meATP 200 µg/50 µL intradermal, bouts counted for 30 minutes) is recorded as 10.62 mg/kg. The number of bouts entry with C57BL/6J mice (intraperitoneally 30 min before α,β-meATP, vs vehicle group (Fig. 2)) was “reduce the number of bouts significantly and in a dose-related manner”. The number of coughs result in the test on Hartley Guinea pigs was “significantly reduced the number of coughs both during and after the nebulization of citric acid”.

The values are drawn from EP4389746A2, “P2X3 RECEPTOR ANTAGONISTS” (Recordati Industria Chimica E Farmaceutica SPA, priority 2022, dated 2024).
